Measured values published in patent publication US20220016080A1, “COMPOUNDS THAT SELECTIVELY AND EFFECTIVELY INHIBIT HAKAI-MEDIATED UBIQUITINATION, AS ANTI-CANCER DRUGS” (FUNDACIÓN PROFESOR NOVOA SANTOS, priority 2018, published 2022).

Tests used:
[1] = tested on: LoVo colon tumour cell line; test: MTT cell viability assay, LoVo; type: cell-based; conditions: 72 h
Description: (§1) For cytotoxicity assays, 1×10^4 cells were seeded per well into a 96-well plate. After 24 h cells were treated with the indicated inhibitors for 72 h and a MTT colorimetric cell viability assay was performed following manufacturer's instructions (Sigma Aldrich, St Louis, Mo.). Absorbance was measured at 570 and 630 nm using a Multiskan Plus Reader (Nanoquant Infinite M200 Tecan Trading AG, Switzerland). Dose-response curves were designed with Graph Pad Prism Software and the half-maximal inhibitory concentration (IC50) values were calculated. Represented data are the mean±SEM of at least three independent experiments with six replicates per condition.

[2] = tested on: Hakai-MDCK cell lines (clone 4 and clone 11); test: MTT cell viability assay, Hakai-MDCK; type: cell-based; conditions: both clones of Hakai-MDCK compared to MDCK; 72 h
Description: as §1

LoVo cells [3] = test: Western blotting of EMT markers, LoVo; type: cell-based; conditions: 48 h
Description: (§2) For western blot analysis, cells were treated with the indicated inhibitors for 48 h and the whole cell extracts were obtained as described previously. Twenty micrograms of lysates were resolved on a 10% polyacrilamide SDS-PAGE followed by western blot analysis performed as previously described. For immunofluorescence assays cells were grown for 24 h on glass coverslips and treated with the indicated inhibitors for 48 h. Cells were fixed with 4% PFA for 15 min, permeabilized with 0.5% […] and incubated with E-cadherin antibody for 2 h. Coverslips were incubated with fluorescein-tagged secondary antibody (Dakopatts, Sweden) for […]. Finally coverslips were mounted with ProLong Gold antifade reagent (LifeTech, UK) and images were taken in epifluorescence microscope (Olympus) using 40× objective.

LoVo cells [4] = test: Immunofluorescence of E-cadherin, LoVo; type: cell-based; conditions: 48 h
Description: as §2

LoVo cells [5] = test: BrdU proliferation assay, LoVo; type: cell-based; conditions: 48 h
Description: (§3) For BrdU assays, 1×10^4 of indicated cells were plated per well into a 96-well plate. After 24 h, cells were treated with the indicated inhibitors for 48 h. Three independent experiments were plated with six replicates per each condition. Cells were treated with […] BrdU for 2 h. BrdU incorporation into newly synthesized DNA was measured using a cell proliferation colorimetric immunoassay kit according to the manufacturer's instructions (Roche, Switzerland). Results are expressed as mean±S.D. Results are represented as percentage of positive cells (mean±S.D) of three independent experiments.

Hakai-MDCK cells = test: BrdU proliferation assay, Hakai-MDCK; type: cell-based; conditions: 48 h
Description: as §3

[6] = tested on: non-transformed epithelial MDCK cells; test: BrdU proliferation assay, MDCK; type: cell-based; conditions: 48 h
Description: as §3

breast cancer MCF7 cell = test: BrdU proliferation assay, MCF7; type: cell-based, human; conditions: 48 h
Description: as §3

renal cancer ACHN cells = test: BrdU proliferation assay, ACHN; type: cell-based, human; conditions: 48 h
Description: as §3

[7] = tested on: Hakai-MDCK xenograft tumours; test: Tumour xenograft model (Hakai-MDCK cells in nude mice); type: in vivo, athymic nu/nu mice
Description: Xenografts experiments were performed in Experimental Surgery Unit—Technological Training Center from INIBIC in compliance with the European Community Law (86/609/EEC) and the Spanish law (R.D. 53/2013). The experiment was approved by the Ethics Committee for Animal Experimentation of Xerencia de Xestion Integrada da Coruna (XXIAC). Mice were in a 12/12 hours light/dark cycle with water and food available ad libitum. Six weeks old athymic nu/nu mice were randomly distributed in groups. One million of MDCK cells, resuspended in DMEM without serum and antibiotic, were subcutaneously inoculated in both flanks in two groups of 3 animals. The same number of Hakai-MDCK cells were injected in two groups of 4 animals. Twenty days after inoculation tumours in Hakai-MDCK were palpable. Then, half of the animals were treated with Hakin-1 (5 mg/kg) and the other half with the same concentration of DMSO every 3 days. Tumour outgrowth was monitored twice a week taking measurements of tumour length (L) and width (W) with an electronic calipter. Tumour volume was calculated as pLW2/6. Forty days after inoculation, animals were sacrificed. Tumours, lungs, kidneys and livers were collected and fixed in 4% PFA and embedded in paraffin blocks for histology and/or immunohistochemistry (IHC) analyses.
Tumours and tissues were deparaffinised, rehydrated and stained with haematoxylin and eosin (H&E) as previously described. Tumour sections (4 μm) were also deparaffinised and hydrated for immunohistochemistry. Antigen retrieval was carried by heating the samples (2100 Retriever; PickCell Laboratories) in citrate buffer (Dako REAL, Denmark) or in EDTA buffer. Then, endogenous peroxidase activity was blocked with peroxidase blocking (DakoCytomation, Denmark). Samples were blocked and permeabilized with 0.2% BSA and 0.1% Tx-100 for 1 hour and incubated with the indicated primary antibodies overnight at 4° C. in a wet chamber. Slides were incubated for 1 hour at room temperature with the secondary antibody and detection was carried our using DAB (DakoReal Envision kit) according to manufacturer instructions. Finally, nuclei were counterstained with Gill's Hematoxylin and mounted with DePeX. Pictures were taken with an Olympus microscope. Quantification of images was performed taken 5 photographs of each animal with Image J programme and the represented results are shown as mean±SEM. The number of mitosis was counted in sections stained with H&E. In this case, ten pictures of each tumour were taken with an Olympus BX50 microscope (objective 40×) and the number of mitosis was counted manually. Results are represented as mean±SEM and a representative photograph is shown for each condition. […]
Tissue sections from tumours were deparaffinised and rehydrated using standard protocols. The slides were rinsed twice with PBS and treated with citrate buffer buffer (Dako REAL, Denmark) in microwave at 350 W for 5 min. The tissue sections were then analysed with an in situ Cell Death Detection Kit, Fluorescein (Roche) following the manufacturer's instructions. Then, slides were incubated with Hoechst for 5 min in darkness. The reaction was visualized under an epifluorescence Olympus microscope using 20× objective. Five representative pictures of each section were taken. The percentage of positive cells was calculated and results are represented as mean±SEM.

[8] = Hakai-MDCK xenograft tumours, 5 mg/kg every 3 days
[9] = Hakai-MDCK xenograft, 5 mg/kg every 3 days

Question: `O=C(O)c1ccc(-n2nnnc2SCC(=O)c2ccc([N+](=O)[O-])cc2)cc1` [Hakin-1, 4-(5-{[2-(4-nitrophenyl)-2-oxoethyl]thiol}-1H-tetrazol-1-yl)benzoic acid] was tested. Which “cytotoxicity effect (cell viability, MTT)” value [1] did it give?
Answer: The value was “important inhibitory response”.

Question: And the “sensitivity to treatment (cell viability, MTT)” value [2]?
Answer: Its value is “more sensitive”.

Question: And the “EMT markers (western blotting)” value (LoVo cells [3])?
Answer: Its value is “confirmed these results”.

Question: What about the “E-cadherin levels at cell-cell contacts (immunofluorescence)” value (LoVo cells [4]) of the same compound?
Answer: The value was “significant increase E-cadherin levels at cell-cell contacts”.

Question: What about the “cell proliferation (BrdU)” value (LoVo cells [5]) of the same compound?
Answer: Its value is “reduced cell proliferation”.

Question: What about the “cell proliferation (BrdU)” value (Hakai-MDCK cells) of the same compound?
Answer: The value was “suppress proliferation”.

Question: And the “cell proliferation (BrdU)” value [6]?
Answer: The value was “no effect was detected”.

Question: What about the “cell proliferation (BrdU)” value (breast cancer MCF7 cell) of the same compound?
Answer: The value was “inhibits cell proliferation”.

Question: What about the “cell proliferation (BrdU)” value (renal cancer ACHN cells) of the same compound?
Answer: The value was “inhibits cell proliferation”.

Question: And the “micrometastasis detected in lung (quantitative PCR of HA-tagged Hakai DNA)” value ([7]; Hakai-MDCK xenograft mice, compared to DMSO treated mice)?
Answer: The value was “significant reduction of micrometastasis”.

Question: And the “Cortactin expression (immunohistochemistry)” value ([7]; Hakai-MDCK xenograft tumours)?
Answer: Its value is “recovered”.

Question: And the “E-cadherin (immunohistochemistry)” value ([7]; Hakai-MDCK xenograft tumours, in presence or absence of treatment)?
Answer: The value was “not detected”.

Question: What about the “apoptosis (TUNEL assay)” value [7, 8] of the same compound?
Answer: Its value is “no effect on apoptosis was detected”.

Question: And the “mitotic-index (H&E)” value [7, 8]?
Answer: Its value is “markedly reduce”.

Question: And the “number of Ki67-positive cells (immunohistochemistry)” value [7, 8]?
Answer: Its value is “markedly reduce”.

Question: And the “number of blood vessels (CD31 angiogenic marker)” value ([7]; Hakai-MDCK xenograft tumours, vs non-treated tumours)?
Answer: Its value is “strong reduction on the number of blood vessels”.

Question: What about the xenograft tumour growth ([7]; Hakai-MDCK xenograft, nude mice, 5 mg/kg every 3 days, vs DMSO) of the same compound?
Answer: Its xenograft tumour growth is “potent effect on inhibiting xenograft tumour growth”.

Question: What about the “tumour-cell infiltration in blood vessels (H&E)” value [7, 9] of the same compound?
Answer: Its value is “no infiltration was detected”.

Question: And the “xenograft tumour cell morphology (H&E)” value [7, 9]?
Answer: Its value is “induction of tumour differentiation and an increase in cytoplasm size”.

Question: And the “tissue damage (H&E, morphological structure)” value ([7]; lung and kidney tissues of treated nude mice, 5 mg/kg)?
Answer: The value was “no damage was observed”.

Question: What about the “N-cadherin expression (immunohistochemistry)” value ([7]; tumour xenografts, compared to DMSO treated mice) of the same compound?
Answer: The value was “strongly reduced”.
